Assay: in vitro
Settings: human, hela cells, % viability

| Structure (SMILES) | viability at 28.5 h, 10 µM |
| --- | --- |
| Cc1nc2ccc(C(=O)N(C)CCN(C)C)cn2c1N(C)Cc1cccs1 [CBK146083] | 102% |
| COCCN(Cc1ccc(OC)cc1)c1c(C)nc2ccc(C(=O)Nc3ccc(NC(C)=O)cc3)cn12 [CBK146111] | 99.3% |
| CCS(=O)(=O)N1CCN(C(=O)c2ccc3nc(C)c(N(CCOC)Cc4ccc(OC)cc4)n3c2)CC1 [CBK146153] | 98.2% |
| CCc1nc2ccc(C(=O)N3CCCC(C(N)=O)C3)cn2c1N(CC)CCN(C)C (centres unmarked) [CBK146185] | 98.8% |
| CCc1nc2ccc(C(=O)N3CCN(C)CC3)cn2c1N(C)Cc1nccn1C [CBK146299] | 115% |
| CCc1nc2ccc(C(=O)N(C)C(C)C)cn2c1N(C)CCN1CCOCC1 [CBK146436] | 95.2% |
| CCOC(=O)N(C)c1c(CC)nc2ccc(C(=O)N(C)CCCN(C)C)cn12 [CBK146478] | 107% |
| CCC(CC)C(=O)N(C)c1c(C)nc2ccc(C(=O)N(C)CCN(C)C)cn12 [CBK146491] | 94.8% |
| CCC(CC)C(=O)N(C)c1c(C)nc2ccc(C(=O)NCCc3c[nH]c4ccccc34)cn12 [CBK146495] | 85.5% |
| CCC(CC)C(=O)N(C)c1c(C)nc2ccc(C(=O)NCc3ccc(OC)cc3)cn12 [CBK146501] | 97.9% |
| CCC(CC)C(=O)N(C)c1c(C)nc2ccc(C(=O)N3CCN(S(=O)(=O)CC)CC3)cn12 [CBK146524] | 92% |
| CCC(CC)C(=O)N(C)c1c(C)nc2ccc(C(=O)Nc3cccc(NS(C)(=O)=O)c3)cn12 [CBK146526] | 105% |
| Cc1nc2ccc(C(=O)N(C)CCN(C)C)cn2c1N(C)C(=O)c1cccs1 [CBK146528] | 120% |
| Cc1nc2ccc(C(=O)NC3CCN(Cc4ccccc4)CC3)cn2c1N(C)C(=O)c1cccs1 [CBK146529] | 99.9% |
| CCc1nc2ccc(C(=O)NCCN3CCCC3)cn2c1N(C)C(=O)c1ccncc1 [CBK146655] | 90.5% |
| CCc1nc2ccc(C(=O)N3CCN(C(C)=O)CC3)cn2c1N(C)Cc1ccc(Cl)cc1 [CBK146718] | 105% |
| Cc1nc2ccc(C(=O)NC3=NN(c4ccccc4)C(=O)C3)cn2c1N(C)C(=O)CCc1ccccc1 [CBK146817] | 89.8% |
| CCc1nc2ccc(C(=O)N3CCCCC3)cn2c1N(CC)Cc1ccc2c(c1)OCCO2 [CBK146903] | 100% |
| CC(=O)c1ccc(NC(=O)N(C)c2c(C)nc3ccc(C(=O)N4CCN(C(=O)c5ccco5)CC4)cn23)cc1 [CBK146930] | 92.8% |
| CCc1nc2ccc(C(=O)Nc3ccc(C(N)=O)cc3)cn2c1N(CC)Cc1cccc(Br)c1 [CBK146960] | 92.9% |

| Structure (SMILES) | viability at 28.5 h, 10 µM |
| --- | --- |
| CCc1nc2ccc(C(=O)N(C)CCN(C)C)cn2c1N(CC)Cc1cccc(Br)c1 [CBK146962] | 93.1% |
| CCc1nc2ccc(C(=O)Nc3ccc(NC(C)=O)cc3)cn2c1N(CC)Cc1ccc(OC)c(OC)c1 [CBK146994] | 97.8% |
| CCc1nc2ccc(C(=O)Nc3ccc(OC)c(OC)c3)cn2c1N(CC)C(=O)NCCc1ccccc1 [CBK147035] | 97.1% |
| CCCCC(=O)N(C)c1c(C)nc2ccc(C(=O)NCc3cccs3)cn12 [CBK147073] | 103% |
| CC(=O)Nc1ccc(CN(C)c2c(C)nc3ccc(C(=O)N(C)CCN(C)C)cn23)cc1 [CBK147107] | 109% |
| Cc1nc2c(OCCN3C(=O)c4ccccc4C3=O)cccn2c1N(C)C(=O)C1CCCCC1 [CBK147157] | 95% |
| CCCCN(C)c1c(C)nc2c(OCC(=O)c3ccc(F)cc3)cccn12 [CBK147172] | 93.1% |
| CCCCN(C)c1c(C)nc2c(OCC3CCCCO3)cccn12 (centres unmarked) [CBK147180] | 103% |
| CCCCN(C)c1c(C)nc2c(OCc3ccc(S(=O)(=O)N(C)C)cc3)cccn12 [CBK147189] | 96.2% |
| CCCCN(C)c1c(C)nc2c(Oc3ncccn3)cccn12 [CBK147190] | 90.9% |
| CCCCN(C)c1c(C)nc2c(Oc3nc4ccccc4s3)cccn12 [CBK147192] | 93.4% |
| Cc1nc2c(OCCOc3ccc(F)cc3)cccn2c1N(C)C(=O)CCC1CCCC1 [CBK147198] | 103% |
| Cc1ccccc1COc1cccn2c(N(C)CC3CCCO3)c(C)nc12 (centres unmarked) [CBK147231] | 115% |
| Cc1nc2c(OCCOc3ccccc3)cccn2c1N(C)CC1CC1 [CBK147272] | 96.8% |
| Cc1nc2c(OCc3ccc(F)c(F)c3)cccn2c1N(C)CC1CC1 [CBK147276] | 91.9% |
| CCN(C)c1c(C)nc2c(OCc3cccc(Cl)c3)cccn12 [CBK147310] | 100% |
| CCN(C)c1c(C)nc2c(OCC(=O)N(C)C)cccn12 [CBK147316] | 107% |
| Cc1nc2c(OCc3ccc(C#N)cc3)cccn2c1N(C)Cc1cccs1 [CBK147336] | 92% |
| CC(=O)Nc1ccc(CN(C)c2c(C)nc3c(OCC4CCCCC4)cccn23)cc1 [CBK147379] | 93.5% |
| CC(=O)Nc1ccc(CN(C)c2c(C)nc3c(OCc4ccc(C(F)(F)F)cc4)cccn23)cc1 [CBK147380] | 94.5% |

| Structure (SMILES) | viability at 28.5 h, 10 µM |
| --- | --- |
| COc1ccc(CN(C)c2c(C)nc3c(OCCCN(C)S(C)(=O)=O)cccn23)cc1 [CBK147468] | 90% |
| COc1ccc(CN(C)c2c(C)nc3c(OCC(=O)N4CCOCC4)cccn23)cc1 [CBK147469] | 102% |
| CCc1nc2c(OCc3ccc(Cl)cc3)cccn2c1N(C=O)CC(=O)N(C)C [CBK147518] | 96.4% |
| CCCCN(C=O)c1c(CC)nc2c(OCCOc3ccc(F)cc3)cccn12 [CBK147631] | 92.7% |
| CCCCN(C=O)c1c(CC)nc2c(OCc3ccccc3C)cccn12 [CBK147639] | 92.2% |
| CCc1nc2c(OCCC3CCCCC3)cccn2c1N(C)C(=O)CC(C)C [CBK147671] | 94.8% |
| CCc1nc2c(OCCOC)cccn2c1N(C)C(=O)c1ccccc1F [CBK147722] | 91.3% |
| CCc1nc2c(OCc3ccccc3OC)cccn2c1N(C)C(=O)C(C)C [CBK147763] | 97% |
| CCCCC(=O)N(C)c1c(CC)nc2c(OCCn3cccc3)cccn12 [CBK147785] | 102% |
| CCNC(=O)N(C)c1c(CC)nc2c(OCC3CCCCC3)cccn12 [CBK147795] | 108% |
| CCc1nc2c(Oc3nc4ccccc4s3)cccn2c1N(C=O)Cc1ccc(OC)cc1 [CBK147819] | 107% |
| CCc1nc2c(OCCOC)cccn2c1N(CCOC)C(C)=O [CBK147845] | 97.4% |
| CCc1nc2c(OCc3ccc(S(C)(=O)=O)cc3)cccn2c1N(CCOC)C(C)=O [CBK147846] | 87.4% |
| O=C(NC(c1ccc(-c2ccccc2)cc1)c1cnccn1)C1CCN(CCCN2C(=O)C3CCCCC3C2=O)CC1 (centres unmarked) [CBK147856] | 97.3% |
| CCc1nc2c(OCC3CCCCO3)cccn2c1N(C)C(=O)c1ccc2c(c1)OCO2 (centres unmarked) [CBK147860] | 82.9% |
| CCc1nc2c(OCc3ccccc3)cccn2c1N(C)C(=O)c1ccncc1 [CBK147876] | 90% |
| Cc1nc2c(OCc3ccccc3)cccn2c1N(C)C(=O)C1CCCCC1 [CBK147884] | 96.2% |
| CCc1nc2c(OCc3ccccc3)cccn2c1N(Cc1ccc(OC)cc1)C(C)=O [CBK147887] | 89.8% |
| CCc1nc2c(OCc3ccccc3)cccn2c1N(C)C(=O)Nc1ccccc1OC [CBK147890] | 98.7% |
